Columns and labels:
[1] = molecular target: T1, KRAS (G12D) (Homo sapiens, UniProt P01116, G12D); assay: KRAS (G12D) cellular degradation assay in AsPC-1 cells; assay type: cell-based; conditions: 24 hours, antibody fluorescence (Odyssey CLX), DC50 half-maximal degradation concentration
T1 construct: in-cell western with KRAS G12D antibody after 24 h
In short: (§1)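 Half-maximal degradation (DC50) and inhibition (IC50) concentrations are fitted from dose-response curves spanning […] to 1.5 nM final. KRAS G12D loss is measured by fluorescent antibody staining with β-actin reference after 24 h; growth is measured by ATP luminescence after a 6-day exposure.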

[2] = system: AsPC-1 cells; assay: AsPC-1 cell proliferation assay (CellTiter Glo); assay type: cell-based; conditions: Homo sapiens, ASPC1, 144 h, 6 days
In short: as §1

T1 sequence (P01116 1-188 isoform P01116-2 G12D): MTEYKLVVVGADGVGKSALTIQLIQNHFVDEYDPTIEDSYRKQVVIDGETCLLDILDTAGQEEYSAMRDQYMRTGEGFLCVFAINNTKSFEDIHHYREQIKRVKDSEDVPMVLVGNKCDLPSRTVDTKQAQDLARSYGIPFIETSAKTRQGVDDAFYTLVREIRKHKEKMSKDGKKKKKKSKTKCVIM

SMILES | DC50 [1] [nM] | IC50 [2] [nM]
CCn1nccc1-c1ccc([C@H](CO)NC(=O)[C@@H]2C[C@@H](O)CN2C(=O)[C@H](C(C)C)n2cc(-c3ccc(COc4c(-c5c(C)c(F)cc6[nH]ncc56)c(C5CC5)cc5c(N6C[C@@H]7C[C@H]6CN7)nc(OCC(OC)C(F)(F)F)nc45)cc3)nn2)cc1 (stereo partly drawn) [Example 48, (2S,4R)-1-((2S)-2-(4-(4-(((4-((1S,4S)-2,5-diazabicyclo[2.2.1]heptan-2-yl)-6-cyclopropyl-7-(6-fluoro-5-methyl-1H-indazol-4-yl)-2-(3,3,3-trifluoro-2-methoxypropoxy)quinazolin-8-yl)oxy)methyl)phenyl)-1H-1,2,3-triazol-1-yl)-3-methylbutanoyl)-N—((R)-1-(4-(1-ethyl-1H-pyrazol-5-yl)phenyl)-2-hydroxyethyl)-4-hydroxypyrrolidine-2-carboxamide] | < 10 | < 10
Cc1ncsc1-c1ccc([C@H](CO)NC(=O)[C@@H]2C[C@@H](O)CN2C(=O)[C@H](C(C)C)n2cc(-c3ccc(COc4c(-c5c(C)c(F)cc6[nH]ncc56)c(C5CC5)cc5c(N6CC7CCC(C6)N7)nc(OC6CCOCC6)nc45)cc3)nn2)cc1 [Example 49, (2S,4R)-1-((2S)-2-(4-(4-(((4-(3,8-diazabicyclo[3.2.1]octan-3-yl)-6-cyclopropyl-7-(6-fluoro-5-methyl-1H-indazol-4-yl)-2-((tetrahydro-2H-pyran-4-yl)oxy)quinazolin-8-yl)oxy)methyl)phenyl)-1H-1,2,3-triazol-1-yl)-3-methylbutanoyl)-4-hydroxy-N—((R)-2-hydroxy-1-(4-(4-methylthiazol-5-yl)phenyl)ethyl)pyrrolidine-2-carboxamide] | < 10 | < 10
CCn1nccc1-c1ccc([C@H](CO)NC(=O)[C@@H]2C[C@@H](O)CN2C(=O)[C@H](C(C)C)n2cc(-c3ccc(COc4c(-c5c(C)c(F)cc6[nH]ncc56)c(C5CC5)cc5c(N6C[C@@H]7C[C@H]6CN7)nc(OCC6COC7OCCC67)nc45)cc3)nn2)cc1 (stereo partly drawn) [Example 51, (2S,4R)-1-((2S)-2-(4-(4-(((4-((1S,4S)-2,5-diazabicyclo[2.2.1]heptan-2-yl)-6-cyclopropyl-7-(6-fluoro-5-methyl-1H-indazol-4-yl)-2-((hexahydrofuro[2,3-b]furan-3-yl)methoxy)quinazolin-8-yl)oxy)methyl)phenyl)-1H-1,2,3-triazol-1-yl)-3-methylbutanoyl)-N—((R)-1-(4-(1-ethyl-1H-pyrazol-5-yl)phenyl)-2-hydroxyethyl)-4-hydroxypyrrolidine-2-carboxamide] | < 10 | < 10
CCn1nccc1-c1ccc([C@H](CO)NC(=O)[C@@H]2C[C@@H](O)CN2C(=O)[C@H](C(C)C)n2cc(-c3ccc(COc4c(-c5c(C)c(F)cc6[nH]ncc56)c(C5CC5(F)F)cc5c(N6C[C@@H]7C[C@H]6CN7)nc(OC[C@H](C)OC)nc45)cc3)nn2)cc1 (stereo partly drawn) [Example 52, (2S,4R)-1-((2S)-2-(4-(4-(((4-((1S,4S)-2,5-diazabicyclo[2.2.1]heptan-2-yl)-6-(2,2-difluorocyclopropyl)-7-(6-fluoro-5-methyl-1H-indazol-4-yl)-2-((S)-2-methoxypropoxy)quinazolin-8-yl)oxy)methyl)phenyl)-1H-1,2,3-triazol-1-yl)-3-methylbutanoyl)-N—((R)-1-(4-(1-ethyl-1H-pyrazol-5-yl)phenyl)-2-hydroxyethyl)-4-hydroxypyrrolidine-2-carboxamide] | 10 to 100 | < 10
CCn1nccc1-c1ccc([C@H](CO)NC(=O)[C@@H]2C[C@@H](O)CN2C(=O)[C@H](C(C)C)n2cc(-c3ccc(COc4c(-c5c(C)c(F)cc6[nH]ncc56)c(C5CC5)cc5c(N6C[C@@H]7C[C@H]6CN7)nc(OCC6(C(F)F)CC6)nc45)cc3)nn2)cc1 [Example 53, (2S,4R)-1-((2S)-2-(4-(4-(((4-((1S,4S)-2,5-diazabicyclo[2.2.1]heptan-2-yl)-6-cyclopropyl-2-((1-(difluoromethyl)cyclopropyl)methoxy)-7-(6-fluoro-5-methyl-1H-indazol-4-yl)quinazolin-8-yl)oxy)methyl)phenyl)-1H-1,2,3-triazol-1-yl)-3-methylbutanoyl)-N—((R)-1-(4-(1-ethyl-1H-pyrazol-5-yl)phenyl)-2-hydroxyethyl)-4-hydroxypyrrolidine-2-carboxamide] | < 10 | < 10
CO[C@@H](C)COc1nc(N2C[C@@H]3C[C@H]2CN3)c2cc(C3CC3)c(-c3c(C)c(F)cc4[nH]ncc34)c(OCc3ccc(-c4cn([C@H](C(=O)N5C[C@H](O)C[C@H]5C(=O)N[C@H](C#Cc5ccc6ncsc6c5)CO)C(C)C)nn4)cc3)c2n1 [Example 54, (2S,4R)-1-((2S)-2-(4-(4-(((4-((1S,4S)-2,5-diazabicyclo[2.2.1]heptan-2-yl)-6-cyclopropyl-7-(6-fluoro-5-methyl-1H-indazol-4-yl)-2-((S)-2-methoxypropoxy)quinazolin-8-yl)oxy)methyl)phenyl)-1H-1,2,3-triazol-1-yl)-3-methylbutanoyl)-N—((R)-4-(benzo[d]thiazol-6-yl)-1-hydroxybut-3-yn-2-yl)-4-hydroxypyrrolidine-2-carboxamide] | 10 to 100 | < 10
CCn1nccc1-c1ccc([C@H](CC(=O)NC)NC(=O)[C@@H]2C[C@@H](O)CN2C(=O)[C@H](C(C)C)n2cc(-c3ccc(COc4c(-c5c(C)c(F)cc6[nH]ncc56)c(C5CC5)cc5c(N6C[C@@H]7C[C@H]6CN7)nc(OC[C@H](C)OC)nc45)cc3)nn2)cc1 [Example 55, (2S,4R)-1-((2S)-2-(4-(4-(((4-((1S,4S)-2,5-diazabicyclo[2.2.1]heptan-2-yl)-6-cyclopropyl-7-(6-fluoro-5-methyl-1H-indazol-4-yl)-2-((S)-2-methoxypropoxy)quinazolin-8-yl)oxy)methyl)phenyl)-1H-1,2,3-triazol-1-yl)-3-methylbutanoyl)-N—((S)-1-(4-(1-ethyl-1H-pyrazol-5-yl)phenyl)-3-(methylamino)-3-oxopropyl)-4-hydroxypyrrolidine-2-carboxamide] | < 10 | < 10
CCn1nccc1-c1ccc([C@H](CO)NC(=O)[C@@H]2C[C@@H](O)CN2C(=O)[C@H](C(C)C)n2cc(-c3ccc(COc4c(-c5c(C)c(F)cc6[nH]ncc56)c(C5CC5)cc5c(N6C[C@@H]7C[C@H]6CN7)nc(O[C@H]6CO[C@H]7OCC[C@H]76)nc45)cc3)nn2)cc1 [Example 56, (2S,4R)-1-((2S)-2-(4-(4-(((4-((1S,4S)-2,5-diazabicyclo[2.2.1]heptan-2-yl)-6-cyclopropyl-7-(6-fluoro-5-methyl-1H-indazol-4-yl)-2-(((3R,3aS,6aR)-hexahydrofuro[2,3-b]furan-3-yl)oxy)quinazolin-8-yl)oxy)methyl)phenyl)-1H-1,2,3-triazol-1-yl)-3-methylbutanoyl)-N—((R)-1-(4-(1-ethyl-1H-pyrazol-5-yl)phenyl)-2-hydroxyethyl)-4-hydroxypyrrolidine-2-carboxamide] | < 10 | < 10
CCn1nccc1-c1ccc([C@H](CO)NC(=O)[C@@H]2C[C@@H](O)CN2C(=O)[C@H](C(C)C)n2cc(-c3ccc(COc4c(-c5c(C)c(F)c(F)c6[nH]ncc56)c(C5CC5)cc5c(N6C[C@@H]7C[C@H]6CN7)nc(OC[C@H](C)OC)nc45)cc3)nn2)cc1 [Example 57, (2S,4R)-1-((2S)-2-(4-(4-(((4-((1S,4S)-2,5-diazabicyclo[2.2.1]heptan-2-yl)-6-cyclopropyl-7-(6,7-difluoro-5-methyl-1H-indazol-4-yl)-2-((S)-2-methoxypropoxy)quinazolin-8-yl)oxy)methyl)phenyl)-1H-1,2,3-triazol-1-yl)-3-methylbutanoyl)-N—((R)-1-(4-(1-ethyl-1H-pyrazol-5-yl)phenyl)-2-hydroxyethyl)-4-hydroxypyrrolidine-2-carboxamide] | < 10 | < 10
CCn1nccc1-c1ccc([C@H](CO)NC(=O)[C@@H]2C[C@@H](O)CN2C(=O)[C@H](C(C)C)n2cc(-c3ccc(COc4c(-c5c(C)c(F)cc6[nH]ncc56)c(C5CC5)cc5c(N6C[C@@H]7C[C@H]6CN7)nc(OC(COC)C(F)(F)F)nc45)cc3)nn2)cc1 (stereo partly drawn) [Example 58, (2S,4R)-1-((2S)-2-(4-(4-(((4-((1S,4S)-2,5-diazabicyclo[2.2.1]heptan-2-yl)-6-cyclopropyl-7-(6-fluoro-5-methyl-1H-indazol-4-yl)-2-((1,1,1-trifluoro-3-methoxypropan-2-yl)oxy)quinazolin-8-yl)oxy)methyl)phenyl)-1H-1,2,3-triazol-1-yl)-3-methylbutanoyl)-N—((R)-1-(4-(1-ethyl-1H-pyrazol-5-yl)phenyl)-2-hydroxyethyl)-4-hydroxypyrrolidine-2-carboxamide] | < 10 | < 10
Cc1ncsc1C#C[C@H](CO)NC(=O)[C@@H]1C[C@@H](O)CN1C(=O)[C@H](C(C)C)n1cc(-c2ccc(COc3c(-c4c(C)c(F)cc5[nH]ncc45)c(C4CC4)cc4c(N5C[C@@H]6C[C@H]5CN6)nc(OC5CCOCC5)nc34)cc2)nn1 [Example 59, (2S,4R)-1-((2S)-2-(4-(4-(((4-((1S,4S)-2,5-diazabicyclo[2.2.1]heptan-2-yl)-6-cyclopropyl-7-(6-fluoro-5-methyl-1H-indazol-4-yl)-2-((tetrahydro-2H-pyran-4-yl)oxy)quinazolin-8-yl)oxy)methyl)phenyl)-1H-1,2,3-triazol-1-yl)-3-methylbutanoyl)-4-hydroxy-N—((R)-1-hydroxy-4-(4-methylthiazol-5-yl)but-3-yn-2-yl)pyrrolidine-2-carboxamide] | < 10 | < 10
